Measured values taken from patent US10538498B2, “1,3,4-oxadiazole sulfonamide derivative compounds as histone deacetylase 6 inhibitor, and the pharmaceutical composition comprising the same” (Chong Kun Dang Pharmaceutical Corp., priority 2015, dated 2020).

Target: T1, human recombinant HDAC6 (Homo sapiens, UniProt Q9UBN7)
T1 construct: purchased Calbiochem 382180
T1 sequence (Q9UBN7 1-1215): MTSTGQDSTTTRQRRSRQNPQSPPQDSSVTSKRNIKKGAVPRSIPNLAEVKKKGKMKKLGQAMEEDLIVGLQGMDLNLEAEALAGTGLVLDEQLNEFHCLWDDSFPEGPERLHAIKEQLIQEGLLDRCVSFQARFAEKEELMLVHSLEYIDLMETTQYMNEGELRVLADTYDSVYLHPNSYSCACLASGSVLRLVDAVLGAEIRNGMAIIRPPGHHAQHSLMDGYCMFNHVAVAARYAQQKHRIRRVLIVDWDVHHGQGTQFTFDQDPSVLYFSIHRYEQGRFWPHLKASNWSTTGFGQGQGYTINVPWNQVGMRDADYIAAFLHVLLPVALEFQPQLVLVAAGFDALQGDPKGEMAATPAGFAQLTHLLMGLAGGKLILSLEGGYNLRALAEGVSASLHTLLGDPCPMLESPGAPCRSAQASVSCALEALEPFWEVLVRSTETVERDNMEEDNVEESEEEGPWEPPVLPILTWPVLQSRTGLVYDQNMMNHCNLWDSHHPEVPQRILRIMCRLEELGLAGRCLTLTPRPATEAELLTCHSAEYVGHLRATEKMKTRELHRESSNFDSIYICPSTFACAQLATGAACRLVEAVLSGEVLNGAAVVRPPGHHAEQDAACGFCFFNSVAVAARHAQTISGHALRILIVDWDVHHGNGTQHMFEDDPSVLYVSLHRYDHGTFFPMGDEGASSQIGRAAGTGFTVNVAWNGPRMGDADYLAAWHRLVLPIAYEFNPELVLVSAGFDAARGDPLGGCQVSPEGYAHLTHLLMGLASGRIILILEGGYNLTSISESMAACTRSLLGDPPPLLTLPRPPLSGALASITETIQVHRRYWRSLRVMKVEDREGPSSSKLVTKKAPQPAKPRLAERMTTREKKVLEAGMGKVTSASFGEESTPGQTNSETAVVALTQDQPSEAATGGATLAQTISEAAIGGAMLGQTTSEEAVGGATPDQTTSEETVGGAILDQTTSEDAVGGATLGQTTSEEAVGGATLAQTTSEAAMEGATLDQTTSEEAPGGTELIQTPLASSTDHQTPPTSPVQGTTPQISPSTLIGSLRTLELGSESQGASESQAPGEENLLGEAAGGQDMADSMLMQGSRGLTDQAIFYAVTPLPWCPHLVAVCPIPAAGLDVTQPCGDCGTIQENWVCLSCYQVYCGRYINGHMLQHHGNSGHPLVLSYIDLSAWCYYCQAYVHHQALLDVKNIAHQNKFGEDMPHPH
Experiment: HDAC6 enzyme activity inhibition assay (HDAC Fluorimetric Drug Discovery Kit)
Assay type: biochemical
Conditions: for HDAC6 selectivity (fold): HDAC1 vs HDAC6; for IC50: same protocol as the HDAC1 enzyme activity test
Method in brief: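 Both isoforms are run by an identical fluorimetric protocol: deacetylation of 10 μM Fluor de Lys-SIRT1 substrate by 0.3 μg recombinant enzyme over 60 min at 30° C, in the presence of 5-fold compound dilutions. Signal is developed for 30 min and read at Ex 360/Em 460 to derive IC50.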

Row | SMILES | HDAC6 selectivity (fold) | IC50 [nM]
1 | O=S(=O)(CCN1CCN(c2ccc(F)cc2)CC1)N(Cc1ccc(-c2nnc(C(F)F)o2)cc1)c1ccccc1 [Compound 11769, N-(4-(5-(difluoromethyl)-1,3,4-oxadiazol-2-yl)benzyl)-2-(4-(4-fluorophenyl)piperazin-1-yl)-N-phenylethane-1-sulfonamide] | 359 | 278
2 | O=S(=O)(CCN1CCN(c2ccc(Cl)c(Cl)c2)CC1)N(Cc1ccc(-c2nnc(C(F)F)o2)cc1)c1ccccc1 [Compound 11770, 2-(4-(3,4-dichlorophenyl)piperazin-1-yl)-N-(4-(5-(difluoromethyl)-1,3,4-oxadiazol-2-yl)benzyl)-N-phenylethane-1-sulfonamide] | 112 | 886
3 | O=S(=O)(CCN1CCN(CCc2ccccc2)CC1)N(Cc1ccc(-c2nnc(C(F)F)o2)cc1)c1ccccc1 [Compound 11771, N-(4-(5-(difluoromethyl)-1,3,4-oxadiazol-2-yl)benzyl)-2-(4-phenethylpiperazin-1-yl)-N-phenylethane-1-sulfonamide] | 311 | 321
4 | O=S(=O)(CCN1CCN(CCc2ccncc2)CC1)N(Cc1ccc(-c2nnc(C(F)F)o2)cc1)c1ccccc1 [Compound 11772, N-(4-(5-(difluoromethyl)-1,3,4-oxadiazol-2-yl)benzyl)-N-phenyl-2-(4-(2-(pyridin-4-yl)ethyl)piperazin-1-yl)ethane-1-sulfonamide] | 2057 | 48.6
5 | O=S(=O)(CCN1CCN(C/C=C/c2ccccc2)CC1)N(Cc1ccc(-c2nnc(C(F)F)o2)cc1)c1ccccc1 [Compound 11773, 2-(4-cinnamylpiperazin-1-yl)-N-(4-(5-(difluoromethyl)-1,3,4-oxadiazol-2-yl)benzyl)-N-phenylethane-1-sulfonamide] | 370 | 270
6 | CS(=O)(=O)N(Cc1ccc(-c2nnc(C(F)F)o2)cc1F)c1ccc2ncoc2c1 [Compound 11774, N-(benzo[d]oxazol-6-yl)-N-(4-(5-(difluoromethyl)-1,3,4-oxadiazol-2-yl)-2-fluorobenzyl)methanesulfonamide] | 1503 | 66.5
7 | CS(=O)(=O)N(Cc1ccc(-c2nnc(C(F)F)o2)cc1F)c1ccc2ncsc2c1 [Compound 11775, N-(benzo[d]thiazol-6-yl)-N-(4-(5-(difluoromethyl)-1,3,4-oxadiazol-2-yl)-2-fluorobenzyl)methanesulfonamide] | 2906 | 34.4
8 | CS(=O)(=O)N(Cc1ccc(-c2nnc(C(F)F)o2)cc1F)c1nncs1 [Compound 11776, N-(4-(5-(difluoromethyl)-1,3,4-oxadiazol-2-yl)-2-fluorobenzyl)-N-(1,3,4-thiadiazol-2-yl)methanesulfonamide] | 113 | 882
9 | CCN1CC(N2CCC(S(=O)(=O)N(Cc3ccc(-c4nnc(C(F)F)o4)cc3)c3cccc(Cl)c3)CC2)C1 [Compound 11777, N-(3-chlorophenyl)-N-(4-(5-(difluoromethyl)-1,3,4-oxadiazol-2-yl)benzyl)-1-(1-ethylazetidin-3-yl)piperidine-4-sulfonamide] | 3472 | 28.8
10 | CC(C)N1CC(N2CCC(S(=O)(=O)N(Cc3ccc(-c4nnc(C(F)F)o4)cc3)c3cccc(Cl)c3)CC2)C1 [Compound 11778, N-(3-chlorophenyl)-N-(4-(5-(difluoromethyl)-1,3,4-oxadiazol-2-yl)benzyl)-1-(1-isopropylazetidin-3-yl)piperidine-4-sulfonamide] | 2724 | 36.7
11 | CC(=O)N1CC(N2CCC(S(=O)(=O)N(Cc3ccc(-c4nnc(C(F)F)o4)cc3)c3cccc(Cl)c3)CC2)C1 [Compound 11779, 1-(1-acetylazetidin-3-yl)-N-(3-chlorophenyl)-N-(4-(5-(difluoromethyl)-1,3,4-oxadiazol-2-yl)benzyl)piperidine-4-sulfonamide] | 2493 | 40.1
12 | CCC(=O)N1CC(N2CCC(S(=O)(=O)N(Cc3ccc(-c4nnc(C(F)F)o4)cc3)c3cccc(Cl)c3)CC2)C1 [Compound 11780, N-(3-chlorophenyl)-N-(4-(5-(difluoromethyl)-1,3,4-oxadiazol-2-yl)benzyl)-1-(1-propionylazetidin-3-yl)piperidine-4-sulfonamide] | 1893 | 52.8
13 | CC(C)N1CC(N2CCC(S(=O)(=O)N(Cc3ccc(-c4nnc(C(F)F)o4)cn3)c3cccc(Cl)c3)CC2)C1 [Compound 11781, N-(3-chlorophenyl)-N-((5-(5-(difluoromethyl)-1,3,4-oxadiazol-2-yl)pyridin-2-yl)methyl)-1-(1-isopropylazetidin-3-yl)piperidine-4-sulfonamide] | 5319 | 18.8
14 | CCC(=O)N1CC(N2CCC(S(=O)(=O)N(Cc3ccc(-c4nnc(C(F)F)o4)cn3)c3cccc(Cl)c3)CC2)C1 [Compound 11782, N-(3-chlorophenyl)-N-((5-(5-(difluoromethyl)-1,3,4-oxadiazol-2-yl)pyridin-2-yl)methyl)-1-(1-propionylazetidin-3-yl)piperidine-4-sulfonamide] | 4032 | 24.8

Results, then the molecule that gave them:

Row | HDAC6 selectivity (fold) | IC50 [nM] | SMILES
15 | 1440 | 69.4 | O=C(C1CC1)N1CC(N2CCC(S(=O)(=O)N(Cc3ccc(-c4nnc(C(F)F)o4)cc3)c3cccc(Cl)c3)CC2)C1 [Compound 11783, N-(3-chlorophenyl)-1-(1-(cyclopropanecarbonyl)azetidin-3-yl)-N-(4-(5-(difluoromethyl)-1,3,4-oxadiazol-2-yl)benzyl)piperidine-4-sulfonamide]
16 | 3154 | 31.7 | O=C(C1CC1)N1CC(N2CCC(S(=O)(=O)N(Cc3ccc(-c4nnc(C(F)F)o4)cn3)c3cccc(Cl)c3)CC2)C1 [Compound 11784, N-(3-chlorophenyl)-1-(1-(cyclopropanecarbonyl)azetidin-3-yl)-N-((5-(5-(difluoromethyl)-1,3,4-oxadiazol-2-yl)pyridin-2-yl)methyl)piperidine-4-sulfonamide]
17 | 2092 | 47.8 | CN1CC(N2CCC(S(=O)(=O)N(Cc3ccc(-c4nnc(C(F)F)o4)cc3)c3cccc(Cl)c3)CC2)C1 [Compound 11785, N-(3-chlorophenyl)-N-(4-(5-(difluoromethyl)-1,3,4-oxadiazol-2-yl)benzyl)-1-(1-methylazetidin-3-yl)piperidine-4-sulfonamide]
18 | 1828 | 54.7 | O=S(=O)(CCN1CCC(F)CC1)N(Cc1ccc(-c2nnc(C(F)F)o2)cn1)c1ccc(F)c(Cl)c1 [Compound 11786, N-(3-chloro-4-fluorophenyl)-N-((5-(5-(difluoromethyl)-1,3,4-oxadiazol-2-yl)pyridin-2-yl)methyl)-2-(4-fluoropiperidin-1-yl)ethane-1-sulfonamide]
19 | 2227 | 44.6 | COCC(C)N1CCC(S(=O)(=O)N(Cc2ccc(-c3nnc(C(F)F)o3)cn2)c2ccccc2)CC1 (stereo not drawn) [Compound 11790, N-((5-(5-(difluoromethyl)-1,3,4-oxadiazol-2-yl)pyridin-2-yl)methyl)-1-(1-methoxypropan-2-yl)-N-phenylpiperidine-4-sulfonamide]
20 | 2114 | 47.3 | O=S(=O)(C1CCN(C2CC(O)C2)CC1)N(Cc1ccc(-c2nnc(C(F)F)o2)cn1)c1ccccc1 (stereo not drawn) [Compound 11791, N-((5-(5-(difluoromethyl)-1,3,4-oxadiazol-2-yl)pyridin-2-yl)methyl)-1-(3-hydroxycyclobutyl)-N-phenylpiperidine-4-sulfonamide]
21 | 1218 | 82.1 | Cc1cccc(N(Cc2ccc(-c3nnc(C(F)F)o3)cc2)S(=O)(=O)C2CCN(C3CC(O)C3)CC2)c1 (stereo not drawn) [Compound 11792, N-(4-(5-(difluoromethyl)-1,3,4-oxadiazol-2-yl)benzyl)-1-(3-hydroxycyclobutyl)-N-(m-tolyl)piperidine-4-sulfonamide]
